# How the values were obtained:
# [1] = tested on: ABCA1; assay: Cellular cholesterol efflux to apo-AI from [3H]-cholesterol-labeled J774 macrophages; format: cell-based, mouse; details: 16 hours pretreatment, J774 cells, apo-AI 20 μg/ml acceptor
# Method: (§1) Stock cultures of J774 mouse macrophage cell line were grown in RPMI 1640 supplemented with 10% FBS and 50 μg/ml gentamicin at 37° C. in a humidified atmosphere containing 95% air and 5% CO2.
# (§2) Cells were seeded in 96 wells (96-well plate, 0.15 ml/well) using 50,000 to 100,000 cells per well and grown in RPMI 1640-10% FBS and 0.5% gentamicin at37° C. for 72 hours to achieve 80-90% confluence. Radiolabeled cholesterol ([1,2-^3H] cholesterol, New England Nuclear) was added to the cells by adding a tracer amount (1-5 μCi/well in a final concentration of 0.1% ethanol) to FBS, which was then diluted to a final concentration of 1% in RPMI. An acyl-CoA cholesterol acyltransferase (ACAT) inhibitor (decanamide, 2-(hexylthio)-N-[6-methyl-2,4-bis(methylthio)-3-pyridinyl]-,(2S)-(9Cl) at 2 μg/ml) was added to the labeling medium. […] Cells were grown in the presence of the radiolabel for two additional days to obtain confluent monolayers. For experiments where cells are enriched in free cholesterol, acetylated LDL (100 μg of protein/ml) was included in the labeling mixture. Following the labeling period, cells were extensively washed using MEM-Hepes medium supplemented with 0.5% gentamicin, and incubated with either cpt-cAMP (positive control) at 0.3 mM or test compounds (varying concentrations may be used, although […] was selected for the present experiment) for an additional 16 hours.
# At the end of the pretreatment period with cpt-cAMP or test compounds, cells were extensively washed with MEM-Hepes medium containing gentamicin and incubated in RPMI 1640 medium containing the cholesterol acceptor apo-AI at a final concentration of 20 μg/ml. Parallel monolayers of control or treated cells were also incubated with acceptor-free medium to determine background, non-acceptor mediated cholesterol efflux. Cellular cholesterol efflux was quantified by measuring the release of cellular [^3H]-cholesterol into the medium as a function of time. An aliquot of the incubation medium was filtered using a 0.45 micron Millipore multiscreen plate to remove any floating cells and then counted using a Wallac Microbeta Counter (Perkin-Elmer Life Sciences, Turku, Finland).
# The amount of radiolabeled cholesterol released from the cells (% efflux) is determined by the amount of radioactivity present in the incubation medium divided by the radioactivity at time zero (T0). Radtio activty at time zero is calculated as the amount of radioactivity in the cells as determined by isopropanol extraction at the end of the treatment time.
# [2] = tested on: ABCA1 mRNA; assay: ABCA1 mRNA level in treated cells; format: cell-based, mouse
# Method: In the case where the analysis of ABCA1 expression is required, total RNA may be isolated (e.g., by the method according to Chomczynski et al., N. Anal. Biochem., 162:156 (1987)) and ABCA1 mRNA levels determined by standard techniques such as Northern blotting, slot blot hybridization, or Ribonuclease protection assays using ABCA1 specific mRNA probes.
# as §1, §2
# [3] = molecular target: T1, acyl-CoA cholesterol acyltransferase (ACAT) (Mus musculus, UniProt Q61263); assay: ACAT inhibition in labeling medium of J774 cells; format: cell-based; details: 2 μg/ml in labeling medium
# T1 construct: endogenous in cells; host or cells: J774 mouse macrophage cell line
# T1 sequence (Q61263 1-540): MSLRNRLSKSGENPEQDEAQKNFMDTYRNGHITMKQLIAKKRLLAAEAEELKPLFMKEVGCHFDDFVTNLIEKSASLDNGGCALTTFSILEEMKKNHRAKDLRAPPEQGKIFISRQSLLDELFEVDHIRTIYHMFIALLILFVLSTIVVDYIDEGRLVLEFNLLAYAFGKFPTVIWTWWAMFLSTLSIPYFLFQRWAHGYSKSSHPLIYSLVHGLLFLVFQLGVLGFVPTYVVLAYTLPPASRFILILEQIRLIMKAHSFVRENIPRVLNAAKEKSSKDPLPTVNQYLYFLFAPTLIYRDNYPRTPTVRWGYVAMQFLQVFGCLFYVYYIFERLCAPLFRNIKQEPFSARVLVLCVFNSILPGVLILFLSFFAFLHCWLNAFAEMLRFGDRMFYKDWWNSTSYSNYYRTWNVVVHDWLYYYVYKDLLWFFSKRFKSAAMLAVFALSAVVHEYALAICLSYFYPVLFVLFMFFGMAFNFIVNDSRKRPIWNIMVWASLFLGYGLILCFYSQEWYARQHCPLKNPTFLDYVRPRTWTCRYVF
# Method: as §2
# [4] = tested on: ABCA1; assay: Cellular cholesterol efflux to apo-AI from [3H]-cholesterol-labeled J774 macrophages; format: cell-based, mouse; details: 1 μM, 16 hours pretreatment, J774 cells, apo-AI 20 μg/ml acceptor
SMILES,% of control (cholesterol efflux) ([1]; 5 μM),also measured
Cc1nnc2c(N3CCC4(CC3)C(=O)NCN4c3ccccc3)nc(-c3ccccc3)cn12,109 % of control,
Cc1nnc2c(N3CCC4(CC3)C(=O)NCN4c3ccccc3)nc(-c3ccc4c(c3)OCO4)cn12,82 % of control,
O=S(=O)(c1ccccc1)N(CC(F)(F)F)c1ccc(C(O)(C(F)(F)F)C(F)(F)F)cc1,177 % of control,% of control mRNA ([2]; 5 μM): 680 % of control
"Nc1ncnc2c1nc(Sc1ccc(Cl)cc1)n2[C@@H]1O[C@@H]2COP(=O)(O)O[C@H]2[C@H]1O [cpt-cAMP, reference compound]",,% of control (cholesterol efflux) ([1]; 0.3 mM): 425 % of control; % of control mRNA ([2]; 0.3 mM): 1600 % of control
COc1cc(-c2cn3c(C)nnc3c(N3CCC4(CC3)C(=O)NCN4c3ccccc3)n2)cc(OC)c1OC,95 % of control,
Cc1nnc2c(N3CCC4(CC3)C(=O)NCN4c3ccccc3)nc(-c3ccc(O)cc3)cn12,106 % of control,
"CCCCCCCC[C@H](SCCCCCC)C(=O)Nc1c(SC)cc(C)nc1SC [decanamide, 2-(hexylthio)-N-[6-methyl-2,4-bis(methylthio)-3-pyridinyl]-,(2S)-(9Cl)]",,ACAT activity [3]: completely inhibited
"CCCCC[C@H](O)/C=C/[C@H]1[C@H](O)CC(=O)[C@@H]1CCCCCCC(=O)O [Prostaglandin E1, reference compound]",,% of control (cholesterol efflux) [4]: 210 % of control; % of control mRNA ([2]; 1 μM): 1420 % of control
COc1ccc(-c2cn3c(C)nnc3c(N3CCC(C)(N(C)c4cccc(F)c4)CC3)n2)cc1,94 % of control,
CN(c1ccc(C(O)(C(F)(F)F)C(F)(F)F)cc1)S(=O)(=O)c1ccccc1[N+](=O)[O-],185 % of control,% of control mRNA ([2]; 5 μM): 160 % of control
COc1ccc(-c2cn3c(C)nnc3c(N3CCC4(CC3)C(=O)NCN4c3ccccc3)n2)cc1OC,111 % of control,
COc1ccc(-c2cn3c(C)nnc3c(N3CCC4(CC3)C(=O)NCN4c3ccccc3)n2)cc1,101 % of control,
Cc1nnc2n1-c1sccc1C(c1ccccc1)=NC2,102 % of control,
